# According to ChEMBL document CHEMBL4118040, “Neomacrophorin X, a [4.4.3]Propellane-Type Meroterpenoid from Trichoderma sp. 1212-03” (J Nat Prod, 2017):
# Tests used:
# HL-60 = test: Cytotoxicity against human HL60 cells after 2 days by MTT assay; type: functional, cell-based; settings: HL-60, 48 h
# [1] = target: T1, Proteasome Macropain subunit MB1 (Homo sapiens, UniProt P28074); test: Inhibition of human erythrocyte 20s proteasome chymotrypsin-like activity using Suc-LLVY-MCA as substrate pretreated for 10 mins followed by substrate addition measured after 3 hrs by spectrophotometric method
# T1 sequence (P28074 whole entry): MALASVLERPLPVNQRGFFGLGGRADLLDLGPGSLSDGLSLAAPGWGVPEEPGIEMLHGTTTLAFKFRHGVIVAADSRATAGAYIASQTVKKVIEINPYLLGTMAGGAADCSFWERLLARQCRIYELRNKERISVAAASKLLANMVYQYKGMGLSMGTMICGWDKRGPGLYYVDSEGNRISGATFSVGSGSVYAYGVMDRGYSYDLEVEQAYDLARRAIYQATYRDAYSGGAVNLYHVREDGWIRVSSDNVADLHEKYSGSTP
smiles,measurement,setting,value
C=C1CC[C@H]2C(C)(C)[C@H](O)CC[C@]2(C)[C@H]1CC1=C(O)C(=O)C2=C(C1=O)[C@@]13C=C[C@@H](O)[C@H](O)[C@]1(C2)C(=O)c1c(O)cc(C)cc1C3=O,IC50,HL-60,9.3 µM
same,IC50,[1],18.5 µM
